Entries after “also recorded” stand apart in the source; their conditions may differ. Read-outs that look alike come from different tables or passages of the source.

Test [1] addresses methionine adenosyltransferase (MAT) (Escherichia coli, UniProt P0A817).
Test [2] has as its system anti-SAM monoclonal antibodies. In words: Cross-reaction of anti-SAM antibody with MAT substrates ATP and L-Met, direct competitive ELISA. To be noted: for Cross-reaction (%): relative to SAM standard at 50% inhibition. Type of test: binding. The method, then: (A) Antigen-coating method: A PLL or BSA-conjugated SAM antigen is pre-coated on a solid-phase ELISA micro-titer plate that is then blocked with BSA solution. The antigen to be detected (SAM sample), then HRP-conjugated anti-SAM antibody are added and incubated at the same time. The antigen to be tested and the coating antigen compete for the enzyme-labeled antibody. After incubation and washing, the enzyme-labeled antibody bound to the coating antigen is retained, and the enzyme-labeled antibody that binds to the antigen to be detected (free antigen) is washed away. Finally, adding TMB substrate to the reaction wells. The final coloration result is inversely proportional to the amount of the antigen to be detected, that is, the higher the OD450 value, the lower the SAM concentration in the sample to be measured. In the course of the experiment, a series of SAM solutions with a known concentration were used as standards in the same ELISA micro-titer plate for the standard curve of the assay. Based on the standard curve, an equation showing how OD450 readings and values of the known standard concentration are related can be obtained. Put the sample OD450 into the equation to get the corresponding concentration value of the sample.
The ELISA plates were coated with PLL SAM antigen. […] The HRP-anti-SAM antibody was diluted at 1:25000 with HRP antibody diluent. Added 30 μl standards and cross-reacting substances ATP and Met per well, and 70 μl diluted HRP-anti-SAM antibody per well and incubated at 37° C. for 1 h. Washed the plate, added 100 μl TMB at 37° C. for 15 min, added 50 μl stop solution and read OD450.
A/A0; reaction rate (A0 is the OD450 reading at 0 nM, A represents any OD450 reading of wells that have different amount of free small molecule antigen competing.)
(In general: In an ELISA, binding on a coated surface is turned into a signal by an enzyme label.)

For another test, the target named is T1, MAT-II in HepG2 cells (Homo sapiens, UniProt P31153).
T1 construct: endogenous in cells; host or cells: HepG2
The test is described as follows: Intracellular MAT activity in HepG2 cells after GSNO pretreatment and Met. Type of test: cell-based.

The next test concerns MAT-III/I in L02 cells. The test is described as follows: Intracellular MAT activity in L02 cells after GSNO pretreatment and Met. Type of test: cell-based, human.
The mark [3] stands for this setting: cross-reacting substance 120 nM.
The mark [4] stands for this setting: cross-reacting substance 1200 nM.
Setting [5] is: cross-reacting substance 3960 nM.
[6] abbreviates: cross-reacting substance 12000 nM.

As to `[Cl-].[K+]` [KCl], the A/A0 is on record as 0.1983 in test [1] (KCl 50 mM, 20 mM MgSO4, 100 mM Tris, ATP 5 mM, Met 4 mM, MAT 1 mg/ml); 0.1938 in test [1] (KCl 100 mM); 0.1911 in test [1] (KCl 150 mM); 0.1973 in test [1] (KCl 200 mM); 0.2079 in test [1] (KCl 250 mM); 0.2106 in test [1] (KCl 300 mM). This compound also showed an A/A0 in test [1] (KCl 400 mM) of 0.1995.

Regarding `O=S(=O)([O-])[O-].[Mg+2]` [MgSO4], the A/A0 in test [1] (MgSO4 4 mM, 250 mM KCl, 100 mM Tris, ATP 5 mM, Met 4 mM, MAT 1 mg/ml) is recorded as 0.2199; in test [1] (MgSO4 10 mM), 0.2047; in test [1] (MgSO4 30 mM) it was 0.1867; in test [1] (MgSO4 50 mM), 0.1766; in test [1] (MgSO4 70 mM), 0.1734; in test [1] (MgSO4 100 mM) it was 0.1724. In addition, the “decrease of A/A0” value in test [1] (MgSO4 from 4 mM to 100 mM) amounted to 0.475.

Take `Nc1ncnc2c1ncn2[C@@H]1O[C@H](COP(=O)(O)OP(=O)(O)OP(=O)(O)O)[C@@H](O)[C@H]1O` [ATP, adenosine triphosphate]: the “A/A0 (reaction rate)” value worked out at 1.051 in test [2] (setting [3]), 1.001 in test [2] (setting [4]), 1.095 in test [2] (setting [5]) and 1.086 in test [2] (setting [6]). The “Cross-reaction (%)” value in test [2] was less than 1%.

Regarding `N[C@@H](CCC(=O)N[C@@H](CSN=O)C(=O)NCC(=O)O)C(=O)O` [GSNO, nitrosoglutathione], the “effect of GSNO nitrosylation on MAT-II” value at MAT-II in HepG2 cells (1 mM GSNO pretreatment) is “minor effect on MAT-II; also recorded: no inhibitory effect on MAT-II”. Also, the “effect of GSNO nitrosylation on MAT-III/I” value in the test on MAT-III/I in L02 cells (1 mM GSNO pretreatment, Met stimulation) is reported as “inhibition of MAT-III or MAT-I after nitrosation of GSNO was obvious; also recorded: inhibitory effect of GSNO nitrosylation on MAT-III/I was obvious”. Moreover, in the test on MAT-III/I in L02 cells (in the presence of 2 mM Met), the “effect of GSNO nitrosylation on MAT activity” value is “remained obvious”.

`CSCC[C@H](N)C(=O)O` [Met, methionine]: the “SAM (nM) synthesized by MAT” value at MAT-II in HepG2 cells (0.5 mM Met 24 h, normalized to 2×10^7 cells, 0 mM Met control 247.4761) is 222.3993 nM; at MAT-II in HepG2 cells (2 mM Met 24 h) it was 174.3621 nM; in the test with MAT-III/I in L02 cells (0.5 mM Met 24 h, normalized to 2×10^7 cells, 0 mM Met control 274.4578162) it was 377.7 nM; in the test on MAT-III/I in L02 cells (2 mM Met 24 h), 236.4 nM. Besides, the “effect on MAT-II activity” value at MAT-II in HepG2 cells (Met 0.5 and 2 mM) was “the higher the Met concentration, the lower the activity of MAT-II; also recorded: inhibits MAT-II activity”. In addition, the “effect on MAT-III/I activity” value in the test on MAT-III/I in L02 cells (500 μM Met, 24 hours) is given as “stimulated the activity of MAT-III or MAT-I; also recorded: stimulated MAT-III/I activity”; in the test with MAT-III/I in L02 cells (2 mM Met) it was “No stimulatory effects; also recorded: stimulation was not significant”. In addition, the “A/A0 (reaction rate)” value in test [2] (setting [3]) is reported as 1.042; in test [2] (setting [4]) it was 1.046; in test [2] (setting [5]), 1.012; in test [2] (setting [6]), 1.095. For the same compound, the “Cross-reaction (%)” value in test [2] was less than 1%.

For `NC(CO)(CO)CO` [Tris, tris (hydroxymethyl) aminomethane], the A/A0 in test [1] (Tris 20 mM, after optimal Mg2+ and K+ were determined) turned out to be 0.4981; in test [1] (Tris 50 mM), 0.2567; in test [1] (Tris 100 mM) it was 0.2168; in test [1] (Tris 200 mM) it was 0.2472.

The record behind these values is US20180328927A1 (HUNAN SKYWORLD BIOTECHNOLOGIES CO., priority 2015, published 2018).
